Laboratory results published in patent US20190382839A1, “[…]” (Bayer Pharma Aktiengesellschaft, priority 2016, published 2019).
Like-named read-outs stand apart in the source and are kept apart here.

Tested on: NHL patients (FL, MZL, MCL, DLBCL, transformed indolent lymphoma, CLL)
From the text: Best response status and progression-free survival (hereinafter referred to as “PFS”) from independent review assessment were used for gene expression analysis. A total number of 24 patients including 3 complete responders, 1 confirmed (hereinafter referred to as “CR”) and 2 unconfirmed (hereinafter referred to as “CRu”) and 5 partial responders (hereinafter referred to as “PR”), 11 stable diseases (hereinafter referred to as “SD”) and 5 progressive diseases (hereinafter referred to as “PD”) with follicular lymphoma (hereinafter referred to as “FL”), marginal zone lymphoma (hereinafter referred to as “MZL”), mantle cell lymphoma (“MCL”), diffuse large B-cell lymphoma (hereinafter referred to as “DLBCL”), transformed indolent lymphoma or CLL who had baseline RNA expression profiling data of sufficient quantity and quality were used for gene expression analysis as listed in Table 1 (given in the experimental section).
Bioinformatics and statistical analyses were done for all 24 NHL patients. […] For GSEA, 34 gene sets (vide Tables 2 and 3) sharing key biological function/process in apoptosis, B-cell receptor (hereinafter referred to as “BCR”) signaling, IL6/JAK/STAT3, cytokine/chemokine, MAPK, MYC, MYD88, NFAT, NFkB, NOTCH, PI3K or tumor microenvironment (refs 3 and 4) were selected and generated.
A weighted gene expression score (hereinafter referred to as “WGS”) reflecting the overall expression level for each gene set was generated from logistic regression and Cox proportional hazards models to assess the association with response status (best-response-WGS) and PFS (PFS-WGS), respectively.
Both the best-response-WGS as well as the PFS-WGS were in turn used in logistic regression or Cox regression models to assess the association of either WGS with the endpoints. Moreover, the raw best-response WGS was used to compute non-cross validated AUC estimates for responder (CR+PR) and non-responder (SD+PD) classifications.

COc1c(OCCCN2CCOCC2)ccc2c1N=C(NC(=O)c1cnc(N)nc1)N1CCN=C21 [copanlisib]
median PFS (CSTB, median gene expression level as cutoff, first printed group (high expression, shorter PFS)): 74 days | number of patients with CR (of the 24 analyzable patients): 3 | number of patients with PD (of the 24 analyzable patients): 5 | number of patients with PR (of the 24 analyzable patients): 5 | number of patients with SD (of the 24 analyzable patients): 11 | objective response rate (patients with high BCR pathway WGS compared to low): increased | objective response rate (patients with high PI3K pathway WGS compared to low): increased
